Test results reported in US8053418B2, “Anti-penicillin resistant pneumococci agent and novel 16-membered macrolide derivative” (Microbial Chemistry Research Foundation, priority 2005, dated 2011).
Converted amounts (≈) assume the structure as drawn. “Also recorded” adds a separate entry of the source. Like-named read-outs stand apart in the source and are kept apart here.

Key:
Type in all cases: cell-based
[1] = system: Streptococcus pneumoniae IMC B-1236 (PRSP); assay: Antimicrobial activity test (MIC), clinical isolate IMC B-1236
Protocol: (§1) Using Streptococcus pneumoniae that include clinical isolates of PRSP, the antimicrobial activity of each of the prepared anti-PRSP agents was measured in accordance with the “determination method of minimum inhibitory concentration of drug against bacteria” of Japanese Society of Chemotherapy (for re-revised version, see Chemotherapy 29; 76, 1981).
(§2) 11 test strains of Streptococcus pneumoniae including IMC B-0919 are all clinical isolates, of which 2 strains, IMC B-0921 and IMC B-1229, are classified into penicillin susceptible Streptococcus pneumoniae (PSSP) and the remaining 9 strains are classified into penicillin-resistant Streptococcus pneumoniae (PRSP) (according to NCCLS standards).

[2] = system: Streptococcus pneumoniae IMC B-1229 (PSSP); assay: Antimicrobial activity test (MIC), clinical isolate IMC B-1229
Protocol: as §1, §2

[3] = system: Streptococcus pneumoniae IMC B-1231 (PRSP); assay: Antimicrobial activity test (MIC), clinical isolate IMC B-1231
Protocol: as §1, §2

[4] = system: Streptococcus pneumoniae IMC B-1234 (PRSP); assay: Antimicrobial activity test (MIC), clinical isolate IMC B-1234
Protocol: as §1, §2

[5] = system: Streptococcus pneumoniae IMC B-1233 (PRSP); assay: Antimicrobial activity test (MIC), clinical isolate IMC B-1233
Protocol: as §1, §2

[6] = system: Streptococcus pneumoniae IMC B-1235 (PRSP); assay: Antimicrobial activity test (MIC), clinical isolate IMC B-1235
Protocol: as §1, §2

[7] = system: Streptococcus pneumoniae IMC B-0920 (PRSP); assay: Antimicrobial activity test (MIC), clinical isolate IMC B-0920
Protocol: as §1, §2

[8] = system: Streptococcus pneumoniae IMC B-0921 (PSSP); assay: Antimicrobial activity test (MIC), clinical isolate IMC B-0921
Protocol: as §1, §2

[9] = system: Streptococcus pneumoniae IMC B-0922 (PRSP); assay: Antimicrobial activity test (MIC), clinical isolate IMC B-0922
Protocol: as §1, §2

[10] = system: Streptococcus pneumoniae IMC B-1232 (PRSP); assay: Antimicrobial activity test (MIC), clinical isolate IMC B-1232
Protocol: as §1, §2

[11] = system: Streptococcus pneumoniae IMC B-0919 (PRSP); assay: Antimicrobial activity test (MIC), clinical isolate IMC B-0919
Protocol: as §1, §2

[12] = system: penicillin-resistant Streptococcus pneumoniae (PRSP); assay: Anti-PRSP activity, overall statements on the clinical isolates; conditions: statement in words
Protocol: as §1, §2
For the compounds of the present invention, MKT-1011, MKT-2003, MKT-3002 and MKT-3003, the antimicrobial activity was measured in the same way as in Experimental Example 1.

[13] = PRSP clinical isolate IMC B-1236
[14] = PSSP clinical isolate IMC B-1229
[15] = PRSP clinical isolate IMC B-1231
[16] = PRSP clinical isolate IMC B-1234
[17] = PRSP clinical isolate IMC B-1233
[18] = PRSP clinical isolate IMC B-1235
[19] = PRSP clinical isolate IMC B-0920
[20] = PSSP clinical isolate IMC B-0921
[21] = PRSP clinical isolate IMC B-0922
[22] = PRSP clinical isolate IMC B-1232
[23] = PRSP clinical isolate IMC B-0919
[24] = Streptococcus pneumoniae IMC B-1236, PRSP
[25] = Streptococcus pneumoniae IMC B-1229, PSSP
[26] = Streptococcus pneumoniae IMC B-1231, PRSP
[27] = Streptococcus pneumoniae IMC B-1234, PRSP
[28] = Streptococcus pneumoniae IMC B-1233, PRSP
[29] = Streptococcus pneumoniae IMC B-1235, PRSP
[30] = Streptococcus pneumoniae IMC B-0920, PRSP
[31] = Streptococcus pneumoniae IMC B-0921, PSSP
[32] = Streptococcus pneumoniae IMC B-0922, PRSP
[33] = Streptococcus pneumoniae IMC B-1232, PRSP
[34] = Streptococcus pneumoniae IMC B-0919, PRSP

SMILES | MIC [1, 13] | MIC [2, 14] | MIC [3, 15] | MIC [4, 16] | MIC [5, 17] | MIC [6, 18] | MIC [7, 19] | MIC [8, 20] | MIC [9, 21] | MIC [10, 22] | MIC [11, 23] | anti-PRSP activity [12] | MIC [1, 24] | MIC [2, 25] | MIC [3, 26] | MIC [4, 27] | MIC [5, 28] | MIC [6, 29] | MIC [7, 30] | MIC [8, 31] | also measured
C=CCOCC1C=C(C)C=CC(=O)C(C)CC(CC=O)C(OC2OC(C)CC(N(C)C)C2O)C(C)CCC(=O)OC1CC (centres unmarked) [MKT-3701] | 12.5 µg/mL (≈ 20.6 µM) | 0.05 µg/mL (≈ 0.0825 µM) | 3.13 µg/mL (≈ 5.17 µM) | 0.1 µg/mL (≈ 0.165 µM) | 0.05 µg/mL (≈ 0.0825 µM) | 12.5 µg/mL (≈ 20.6 µM) | 0.2 µg/mL (≈ 0.33 µM) | 0.05 µg/mL (≈ 0.0825 µM) | 0.1 µg/mL (≈ 0.165 µM) | 0.05 µg/mL (≈ 0.0825 µM) | 0.1 µg/mL (≈ 0.165 µM) | high anti-PRSP activity |  |  |  |  |  |  |  |  | 
CCC1OC(=O)CCC(C)C(OC2OC(C)CC(N(C)C)C2O)C(CC=O)CC(C)C(=O)C=CC(C)=CC1CSc1ccccn1 (centres unmarked) [MKT-3003] | 1.56 µg/mL (≈ 2.37 µM) | 0.1 µg/mL (≈ 0.152 µM) | 50 µg/mL (≈ 75.9 µM) | <0.025 µg/mL | <0.025 µg/mL | 1.56 µg/mL (≈ 2.37 µM) | <0.025 µg/mL | <0.025 µg/mL | <0.025 µg/mL | <0.025 µg/mL | <0.025 µg/mL | high anti-PRSP activity; also recorded: inhibited the growth of PRSP at remarkably low concentrations | 1.56 µg/mL (≈ 2.37 µM) | 0.1 µg/mL (≈ 0.152 µM) | 50 µg/mL (≈ 75.9 µM) | <0.025 µg/mL | <0.025 µg/mL | 1.56 µg/mL (≈ 2.37 µM) | <0.025 µg/mL | <0.025 µg/mL | MIC [9, 32]: <0.025 µg/mL; MIC [10, 33]: <0.025 µg/mL; MIC [11, 34]: <0.025 µg/mL
CCC1OC(=O)CCC(C)C(OC2OC(C)CC(N(C)C)C2O)C(CC=O)CC(C)C(=O)C=CC(C)=CC1CSc1ncccn1 (centres unmarked) [MKT-3802] | 12.5 µg/mL (≈ 18.9 µM) | 0.05 µg/mL (≈ 0.0758 µM) | 0.39 µg/mL (≈ 0.591 µM) | 0.025 µg/mL (≈ 0.0379 µM) | <0.025 µg/mL | 12.5 µg/mL (≈ 18.9 µM) | <0.025 µg/mL | 0.05 µg/mL (≈ 0.0758 µM) | 0.05 µg/mL (≈ 0.0758 µM) | <0.025 µg/mL | <0.025 µg/mL | high anti-PRSP activity |  |  |  |  |  |  |  |  | 
CCC1OC(=O)CCC(C)C(OC2OC(C)CC(N(C)C)C2O)C(CC=O)CC(C)C(=O)C=CC(C)=CC1COC(C)=O (centres unmarked) [MKT-2002] | 12.5 µg/mL (≈ 20.6 µM) | 0.1 µg/mL (≈ 0.165 µM) | 0.39 µg/mL (≈ 0.642 µM) | 0.1 µg/mL (≈ 0.165 µM) | 0.05 µg/mL (≈ 0.0823 µM) | 25 µg/mL (≈ 41.1 µM) | 0.05 µg/mL (≈ 0.0823 µM) | 0.1 µg/mL (≈ 0.165 µM) | 0.1 µg/mL (≈ 0.165 µM) | 0.05 µg/mL (≈ 0.0823 µM) | 0.1 µg/mL (≈ 0.165 µM) | high anti-PRSP activity |  |  |  |  |  |  |  |  | 
CC[C@H]1OC(=O)CC[C@H](C)[C@@H](OC2OC(C)CC(N(C)C)C2O)[C@@H](CC=O)C[C@@H](C)C(=O)/C=C/C(C)=C/[C@@H]1COCOCc1ccccc1 (some centres unmarked) [MKT-3703] |  |  |  |  |  |  |  |  |  |  |  | high anti-PRSP activity |  |  |  |  |  |  |  |  | MIC ([1]; Streptococcus pneumoniae, PRSP clinical isolate IMC B-1236, read-out: MIC): 12.5 µg/mL (≈ 18.2 µM); MIC ([2]; Streptococcus pneumoniae, PSSP clinical isolate IMC B-1229, read-out: MIC): 0.1 µg/mL (≈ 0.146 µM); MIC ([3]; Streptococcus pneumoniae, PRSP clinical isolate IMC B-1231, read-out: MIC): 6.25 µg/mL (≈ 9.11 µM); MIC ([4]; Streptococcus pneumoniae, PRSP clinical isolate IMC B-1234, read-out: MIC): < 0.025 µg/mL; MIC ([5]; Streptococcus pneumoniae, PRSP clinical isolate IMC B-1233, read-out: MIC): < 0.025 µg/mL; MIC ([6]; Streptococcus pneumoniae, PRSP clinical isolate IMC B-1235, read-out: MIC): 6.25 µg/mL (≈ 9.11 µM); MIC ([7]; Streptococcus pneumoniae, PRSP clinical isolate IMC B-0920, read-out: MIC): 0.025 µg/mL (≈ 0.0364 µM); MIC ([8]; Streptococcus pneumoniae, PSSP clinical isolate IMC B-0921, read-out: MIC): < 0.025 µg/mL; MIC ([9]; Streptococcus pneumoniae, PRSP clinical isolate IMC B-0922, read-out: MIC): < 0.025 µg/mL; MIC ([10]; Streptococcus pneumoniae, PRSP clinical isolate IMC B-1232, read-out: MIC): < 0.025 µg/mL; MIC ([11]; Streptococcus pneumoniae, PRSP clinical isolate IMC B-0919, read-out: MIC): < 0.025 µg/mL
CCC1OC(=O)CCC(C)C(OC2OC(C)CC(N(C)C)C2O)C(CC=O)CC(C)C(=O)C=CC(C)=CC1CNC(=O)c1ccccc1 (centres unmarked) [MKT-3202] | 6.25 µg/mL (≈ 9.34 µM) | <0.025 µg/mL | 0.05 µg/mL (≈ 0.0748 µM) | <0.025 µg/mL | <0.025 µg/mL | 0.1 µg/mL (≈ 0.15 µM) | 0.2 µg/mL (≈ 0.299 µM) | <0.025 µg/mL | <0.025 µg/mL | 0.1 µg/mL (≈ 0.15 µM) | 0.2 µg/mL (≈ 0.299 µM) | high anti-PRSP activity |  |  |  |  |  |  |  |  | 
CCC1OC(=O)CCC(C)C(OC2OC(C)CC(N(C)C)C2O)C(CC=O)CC(C)C(=O)C=CC(C)=CC1CN(C)C (centres unmarked) [MKT-3101] | 50 µg/mL (≈ 84.3 µM) | 0.2 µg/mL (≈ 0.337 µM) | 12.5 µg/mL (≈ 21.1 µM) | 0.2 µg/mL (≈ 0.337 µM) | 0.2 µg/mL (≈ 0.337 µM) | 25 µg/mL (≈ 42.2 µM) | 0.78 µg/mL (≈ 1.32 µM) | 0.2 µg/mL (≈ 0.337 µM) | 0.39 µg/mL (≈ 0.658 µM) | 0.2 µg/mL (≈ 0.337 µM) | 0.78 µg/mL (≈ 1.32 µM) |  |  |  |  |  |  |  |  |  | 
CCC1OC(=O)CCC(C)C(OC2OC(C)CC(N(C)C)C2O)C(CC=O)CC(C)C(=O)C=CC(C)=CC1CN1CCC(CCO)CC1 (centres unmarked) [MKT-6113] |  |  |  |  |  |  |  |  |  |  |  |  | >50 µg/mL | 0.39 µg/mL (≈ 0.576 µM) | >50 µg/mL | 0.39 µg/mL (≈ 0.576 µM) | 0.78 µg/mL (≈ 1.15 µM) | >50 µg/mL | 1.56 µg/mL (≈ 2.3 µM) | 0.20 µg/mL (≈ 0.295 µM) | MIC [9, 32]: 1.56 µg/mL (≈ 2.3 µM); MIC [10, 33]: 1.56 µg/mL (≈ 2.3 µM); MIC [11, 34]: 0.78 µg/mL (≈ 1.15 µM)
CCC1OC(=O)CCC(C)C(OC2OC(C)CC(N(C)C)C2O)C(CC=O)CC(C)C(=O)C=CC(C)=CC1CNC(=O)Cc1cccnc1 (centres unmarked) [MKT-3216] |  |  |  |  |  |  |  |  |  |  |  |  | 12.5 µg/mL (≈ 18.3 µM) | 0.10 µg/mL (≈ 0.146 µM) | 6.25 µg/mL (≈ 9.14 µM) | 0.05 µg/mL (≈ 0.0731 µM) | 0.05 µg/mL (≈ 0.0731 µM) | 12.5 µg/mL (≈ 18.3 µM) | 0.10 µg/mL (≈ 0.146 µM) | 0.10 µg/mL (≈ 0.146 µM) | MIC [9, 32]: 0.10 µg/mL (≈ 0.146 µM); MIC [10, 33]: 0.05 µg/mL (≈ 0.0731 µM); MIC [11, 34]: 0.10 µg/mL (≈ 0.146 µM)
